# In patent US20100029761A1, “NOVEL COMPOUNDS, PHARMACEUTICAL COMPOSITIONS CONTAINING SAME, AND METHODS OF USE FOR SAME” (priority 2005, published 2010):
# Like-named read-outs stand apart in the source and are kept apart here.
# What was measured:
# purified human FAS = target: T1, purified human FAS (Homo sapiens, UniProt P49327); test: Measurement of FAS enzymatic activity (malonyl-CoA dependent NADPH oxidation); assay type: biochemical
# T1 construct: Human FAS was purified from cultured ZR-75-1 human breast cancer cells obtained from the American Type Culture Collection; endogenous in cells; host or cells: ZR-75-1 human breast cancer cells (ATCC); PEG precipitations and Mono Q anion exchange
# T1 sequence (P49327 whole entry): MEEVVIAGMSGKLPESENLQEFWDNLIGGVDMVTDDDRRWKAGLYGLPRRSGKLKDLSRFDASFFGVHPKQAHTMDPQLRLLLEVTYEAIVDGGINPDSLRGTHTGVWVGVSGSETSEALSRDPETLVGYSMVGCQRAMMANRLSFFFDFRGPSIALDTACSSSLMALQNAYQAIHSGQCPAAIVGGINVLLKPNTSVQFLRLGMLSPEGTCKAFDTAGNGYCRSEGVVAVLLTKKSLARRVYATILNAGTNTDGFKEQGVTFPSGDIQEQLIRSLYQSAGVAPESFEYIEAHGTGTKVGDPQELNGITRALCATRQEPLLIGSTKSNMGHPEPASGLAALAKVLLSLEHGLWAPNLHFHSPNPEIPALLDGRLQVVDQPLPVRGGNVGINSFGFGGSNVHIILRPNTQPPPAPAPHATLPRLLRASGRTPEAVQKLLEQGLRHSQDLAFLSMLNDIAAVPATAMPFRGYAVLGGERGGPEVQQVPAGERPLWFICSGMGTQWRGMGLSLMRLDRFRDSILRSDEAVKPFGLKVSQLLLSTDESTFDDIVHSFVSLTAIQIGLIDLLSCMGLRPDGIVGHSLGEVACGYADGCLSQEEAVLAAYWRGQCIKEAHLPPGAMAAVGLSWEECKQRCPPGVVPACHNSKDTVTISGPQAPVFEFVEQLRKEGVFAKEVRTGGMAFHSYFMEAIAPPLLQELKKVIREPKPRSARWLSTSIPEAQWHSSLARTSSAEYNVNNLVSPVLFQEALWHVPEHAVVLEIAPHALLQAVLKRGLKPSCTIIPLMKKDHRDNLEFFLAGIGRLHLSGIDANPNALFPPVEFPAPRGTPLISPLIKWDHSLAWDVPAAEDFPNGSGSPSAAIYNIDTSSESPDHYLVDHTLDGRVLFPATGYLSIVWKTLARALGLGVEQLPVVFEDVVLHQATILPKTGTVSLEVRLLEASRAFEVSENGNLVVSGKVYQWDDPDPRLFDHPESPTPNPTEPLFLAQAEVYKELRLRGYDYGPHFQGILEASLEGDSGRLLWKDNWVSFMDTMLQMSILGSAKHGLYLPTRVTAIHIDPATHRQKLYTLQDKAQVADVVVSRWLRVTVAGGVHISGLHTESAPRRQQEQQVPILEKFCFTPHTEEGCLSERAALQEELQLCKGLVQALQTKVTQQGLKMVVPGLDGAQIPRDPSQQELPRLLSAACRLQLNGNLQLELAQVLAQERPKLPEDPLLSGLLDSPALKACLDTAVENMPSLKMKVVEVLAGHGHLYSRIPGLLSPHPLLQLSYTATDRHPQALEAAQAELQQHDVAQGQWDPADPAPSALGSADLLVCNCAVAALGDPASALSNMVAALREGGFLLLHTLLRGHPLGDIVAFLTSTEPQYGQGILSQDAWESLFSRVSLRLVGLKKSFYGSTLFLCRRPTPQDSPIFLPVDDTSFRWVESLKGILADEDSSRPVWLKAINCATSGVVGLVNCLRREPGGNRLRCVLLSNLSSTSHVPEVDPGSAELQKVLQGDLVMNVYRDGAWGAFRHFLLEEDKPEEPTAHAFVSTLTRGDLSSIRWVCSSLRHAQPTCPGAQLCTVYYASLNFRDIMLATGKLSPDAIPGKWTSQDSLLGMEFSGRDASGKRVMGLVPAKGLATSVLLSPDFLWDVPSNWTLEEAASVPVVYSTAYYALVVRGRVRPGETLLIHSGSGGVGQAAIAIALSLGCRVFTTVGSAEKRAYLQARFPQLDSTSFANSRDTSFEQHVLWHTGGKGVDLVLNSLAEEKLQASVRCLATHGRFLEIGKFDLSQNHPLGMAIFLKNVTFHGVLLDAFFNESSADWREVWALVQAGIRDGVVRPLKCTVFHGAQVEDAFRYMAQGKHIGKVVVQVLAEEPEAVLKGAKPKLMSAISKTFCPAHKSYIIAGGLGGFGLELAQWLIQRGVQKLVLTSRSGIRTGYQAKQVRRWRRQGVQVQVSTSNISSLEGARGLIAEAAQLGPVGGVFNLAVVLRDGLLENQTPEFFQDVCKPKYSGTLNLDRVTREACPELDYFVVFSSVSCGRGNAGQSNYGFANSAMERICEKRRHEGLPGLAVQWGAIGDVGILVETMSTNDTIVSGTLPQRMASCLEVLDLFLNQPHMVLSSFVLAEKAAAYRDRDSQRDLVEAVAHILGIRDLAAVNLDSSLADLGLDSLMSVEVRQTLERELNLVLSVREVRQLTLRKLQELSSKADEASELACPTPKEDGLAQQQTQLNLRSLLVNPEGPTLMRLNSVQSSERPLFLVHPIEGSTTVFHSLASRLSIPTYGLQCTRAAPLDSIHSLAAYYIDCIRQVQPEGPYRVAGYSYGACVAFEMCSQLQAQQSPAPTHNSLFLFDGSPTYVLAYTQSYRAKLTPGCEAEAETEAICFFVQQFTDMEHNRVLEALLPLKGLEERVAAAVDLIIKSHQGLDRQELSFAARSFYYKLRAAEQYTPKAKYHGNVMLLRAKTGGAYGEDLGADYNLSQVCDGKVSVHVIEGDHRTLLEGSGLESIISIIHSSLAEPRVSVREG
# Description: Human FAS was purified from cultured ZR-75-1 human breast cancer cells obtained from the American Type Culture Collection. The procedure, adapted from Linn et al., 1981, and Kuhajda et al., 1994, utilizes hypotonic lysis, successive polyethyleneglycol (PEG) precipitations, and anion exchange chromatography. ZR-75-1 cells are cultured at 37° C. with 5% CO2 in RPMI culture medium with 10% fetal bovine serum, penicillin and streptomycin.
# Ten T150 flasks of confluent cells are lysed with 1.5 ml lysis buffer (20 mM Tris-HCl, pH 7.5, 1 mM EDTA, 0.1 mM phenylmethanesulfonyl fluoride (PMSF), 0.1% Igepal CA-630) and dounce homogenized on ice for 20 strokes. The lysate is centrifuged in JA-20 rotor (Beckman) at 20,000 rpm for 30 minutes at 4° C. and the supernatant is brought to 42 ml with lysis buffer. A solution of 50% PEG 8000 in lysis buffer is added slowly to the supernatant to a final concentration of 7.5%. After rocking for 60 minutes at 4° C., the solution is centrifuged in JA-20 rotor (Beckman) at 15,000 rpm for 30 minutes at 4° C. Solid PEG 8000 is then added to the supernatant to a final concentration of 15%. After the rocking and centrifugation is repeated as above, the pellet is resuspended overnight at 4° C. in 10 ml of Buffer A (20 mM K2HPO4, pH 7.4). After […] filtration, the protein solution is applied to a Mono Q 5/5 anion exchange column (Pharmacia). The column is washed for 15 minutes with buffer A at 1 ml/minute, and bound material is eluted with a linear 60-ml gradient over 60 minutes to 1 M KCl. FAS (MW˜270 kD) typically elutes at 0.25 M KCl in three 0.5 ml fractions identified using 4-15% SDS-PAGE with Coomassie G250 stain (Bio-Rad). FAS protein concentration is determined using the Coomassie Plus Protein Assay Reagent (Pierce) according to manufacturer's specifications using BSA as a standard. This procedure results in substantially pure preparations of FAS (>95%) as judged by Coomassie-stained gels.
# FAS activity is measured by monitoring the malonyl-CoA dependent oxidation of NADPH spectrophotometrically at OD340 in 96-well plates (Dils et al and Arslanian et al, 1975). Each well contains 2 μg purified FAS, 100 mM K2HPO4, pH 6.5, 1 mM dithiothreitol (Sigma), and 187.5 μM β-NADPH (Sigma). Stock solutions of inhibitors are prepared in DMSO at 2, 1, and 0.5 mg/ml resulting in final concentrations of 20, 10, and 5 μg/ml when 1 μl of stock is added per well. For each experiment, cerulenin (Sigma) is run as a positive control along with DMSO controls, inhibitors, and blanks (no FAS enzyme) all in duplicate.
# The assay is performed on a Molecular Devices SpectraMax Plus Spectrophotometer. The plate containing FAS, buffers, inhibitors, and controls are placed in the spectrophotometer heated to 37° C. Using the kinetic protocol, the wells are blanked on duplicate wells containing 100 μl of 100 mM K2HPO4, pH 6.5 and the plate is read at OD340 at 10 sec intervals for 5 minutes to measure any malonyl-CoA independent oxidation of NADPH. The plate is removed from the spectrophotometer and malonyl-CoA (67.4 μM, final concentration per well) and […] (61.8 μM, final concentration per well) are added to each well except to the blanks. The plate is read again as above with the kinetic protocol to measure the malonyl-CoA dependent NADPH oxidation. The difference between the Δ OD340 for the malonyl-CoA dependent and non-malonyl-CoA dependent NADPH oxidation is the specific FAS activity. Because of the purity of the FAS preparation, non-malonyl-CoA dependent NADPH oxidation is negligible.
# The concentration of compound yielding 50% inhibition of FAS is the IC50. Graphs of Δ OD340 versus time are plotted by the SOFTmax PRO software (Molecular Devices) for each compound concentration. Computation of linear regression, best-fit line, r^2, and 95% confidence intervals are calculated using Prism Version 3.0 (Graph Pad Software).
# OV = test: XTT cytotoxicity assay (OV); assay type: cell-based; details: abbreviation not defined
# Description: The XTT assay is a non-radioactive alternative for the [^51Cr] release cytotoxicity assay. XTT is a tetrazolium salt that is reduced to a formazan dye only by metabolically active, viable cells. The reduction of XTT is measured spectrophotometrically as OD490-OD650. After 72 hours of incubation, cells are incubated for 4 hours with the XTT reagent as per manufacturer's instructions (Cell Proliferation Kit II (XTT) Roche). Plates are read at OD490 and OD650 on a Molecular Devices SpectraMax Plus Spectrophotometer. Three wells containing the XTT reagent without cells serve as the plate blank. XTT data are reported as OD490-OD650. Averages and standard error of the mean are computed using SOFTmax Pro software (Molecular Dynamics). The IC50 for the compounds is defined as the concentration of drug leading to a 50% reduction in OD490-OD650 compared to controls. The OD490-OD650 are computed by the SOFTmax PRO software (Molecular Devices) for each compound concentration. IC50 is calculated by linear regression, plotting the FAS activity as percent of control versus drug concentrations. Linear regression, best-fit line, r^2, and 95% confidence intervals are determined using Prism Version 3.0 (Graph Pad Software).
# [1] = marked (SB), abbreviation not defined, read-out: FAS (IC50) (SB) (converted)
SMILES,IC50 (purified human FAS; [1]) [µM],"FAS (IC50) (purified human FAS; purified human FAS, OD340)",Solubility remark under FAS (IC50) (purified human FAS),"IC50 (purified human FAS; purified human FAS, OD340, read-out: FAS (IC50) (converted)) [µM]",IC50 (OV) [µg/mL]
CCCCC1OC(=O)C(O)=C1C(=O)OCC (stereo not shown) [Compound 2],1230,Neg,,,66.1
CCCCCCCCC1OC(=O)C(OC)=C1C(=O)OCC (stereo not shown) [Compound 4],,Neg,Solubility problems,,9.2
CCCCCCCCC1OC(=O)C(=O)C1C(=O)OCC (stereo not shown) [Compound 1],,,,65.1,18.4 ± 5.8
CCCCCCCCC1OC(=O)C(OCC(=O)OCC)=C1C(=O)OCC (stereo not shown) [Compound 3],121,Neg,,,24.1

# Second part, led by results:
IC50 (purified human FAS; [1]) [µM],"FAS (IC50) (purified human FAS; purified human FAS, OD340)",Solubility remark under FAS (IC50) (purified human FAS),"IC50 (purified human FAS; purified human FAS, OD340, read-out: FAS (IC50) (converted)) [µM]",SMILES,IC50 (OV) [µg/mL]
,Neg,Solubility problems,,C=CCOC1=C(C(=O)OCC)C(CCCCCCCC)OC1=O (stereo not shown) [Compound 6],> 80
,Neg,Solubility problems,,CCCCCCCCC1OC(=O)C(OCc2ccccc2)=C1C(=O)OCC (stereo not shown) [Compound 5],33.9
222,,,,CCCCCCCCC1OC(=O)C(OC(=O)OCC)=C1C(=O)OCC (stereo not shown) [Compound 7],13.8
